Counter-ions that a name gives are not always drawn.
Assays:
p38 MAP kinase = target: T1, p38 MAP kinase (Homo sapiens, UniProt Q16539); experiment: in vitro inhibition of p-38 (MAP) kinase: transfer of γ-phosphate from γ-33P-ATP to Myelin Basic Protein; type: biochemical; conditions: phosphorylated recombinant p38 MAP kinase, MBP substrate, 30° C., read-out: IC50 (p-38 inhibitory activity, concentration causing 50% inhibition of the p-38 enzyme)
T1 construct: made in house; host or cells: E. coli (co-expressed with SEK-1 and MEKK to obtain the phosphorylated form)
Procedure: This example illustrate an assay protocol for determining in vitro inhibition of p-38 (MAP) Kinase.
The p-38 MAP kinase inhibitory activity of compounds of this invention in vitro was determined by measuring the transfer of the γ-phosphate from γ-^33P-ATP by p-38 kinase to Myelin Basic Protein (MBP), using the a minor modification of the method described in Ahn, N. G.; et al. J. Biol. Chem. Vol. 266(7), 4220-4227, (1991).
The phosphorylated form of the recombinant p38 MAP kinase was expressed with SEK-1 and MEKK in E. Coli and then purified by affinity chromatography using a Nickel column.
The phosphorylated p38 MAP kinase was diluted in kinase buffer (20 mM 3-(N-morpholino)propanesulfonic acid, pH 7.2, 25 mM β-glycerol phosphate, 5 mM ethylene glycol-bis(beta-aminoethyl ether)-N,N,N′,N′-tetraacetic acid, 1 mM sodium vanadate, 1 mM dithiothreitol, 40 mM magnesium chloride). Test compound dissolved in DMSO or only DMSO (control) was added and the samples were incubated for 10 min at 30° C. The kinase reaction was initiated by the addition of a substrate cocktail containing MBP and γ-^33P-ATP. After incubating for an additional 20 min at 30° C., the reaction was terminated by adding 0.75% phosphoric acid. The phosphorylated MBP was then separated from the residual γ-^33P-ATP using a phosphocellulose membrane (Millipore, Bedford, Mass.) and quantitated using a scintillation counter (Packard, Meriden, Conn.).
Compounds of the invention were active in this assay. The p-38 inhibitory activities (expressed as IC50 , the concentration causing 50% inhibition of the p-38 enzyme being assayed) of some compounds of the invention are: […]

T1 sequence (Q16539 whole entry): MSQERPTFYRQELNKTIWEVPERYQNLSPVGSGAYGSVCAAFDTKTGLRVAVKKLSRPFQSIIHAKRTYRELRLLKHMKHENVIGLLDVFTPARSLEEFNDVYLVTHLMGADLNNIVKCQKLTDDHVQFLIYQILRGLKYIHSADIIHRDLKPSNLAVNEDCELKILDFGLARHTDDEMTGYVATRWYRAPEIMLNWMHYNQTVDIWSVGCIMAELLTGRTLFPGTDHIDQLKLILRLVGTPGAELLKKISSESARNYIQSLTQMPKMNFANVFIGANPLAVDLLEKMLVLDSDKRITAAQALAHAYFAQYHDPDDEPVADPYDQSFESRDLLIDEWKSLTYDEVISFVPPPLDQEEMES

Structure (SMILES)	melting point [°C]	IC50 (p38 MAP kinase) [nM]
C[C@H](Nc1ncc2cc(-c3ccccc3Cl)c(=O)n(N)c2n1)C(C)(O)O.Cl	> 300	
CN1CCC(CNc2ncc3cc(-c4ccccc4Cl)c(=O)[nH]c3n2)CC1.Cl	213 to 220	
COCCC(C)Nc1ncc2cc(-c3ccccc3Cl)c(=O)n(C)c2n1.Cl (stereo not shown)	156.4 to 160.2	
C[C@H](Nc1ncc2cc(-c3ccccc3Cl)c(=O)n(C)c2n1)C(C)(C)O.Cl	194 to 195.3	
Cn1c(=O)c(-c2ccccc2Cl)cc2cnc(NC(C)(C)CO)nc21 (as salt: HCl) [Cpd 1]	228.6 to 228.9	
COC(=O)CN1CCC(CNc2ncc3cc(-c4ccccc4Cl)c(=O)[nH]c3n2)CC1.Cl	220 to 221.1	
CC(Nc1ncc2cc(-c3ccccc3Cl)c(=O)n(C)c2n1)C(C)S(C)(=O)=O.Cl (stereo not shown)	142.1 to 144.3	
Cn1c(=O)c(-c2ccccc2Cl)cc2cnc(NC(C)(C)CO)nc21 [Cpd 1]		52

Next, values leading:

melting point [°C]	IC50 (p38 MAP kinase) [nM]	Structure (SMILES)
142 to 149		C[C@H](Nc1ncc2cc(-c3ccccc3Cl)c(=O)n(-c3ccc(F)cc3)c2n1)C(C)(C)O (as salt: HCl) [Cpd 7]
235.3 to 237.9	2200	Cl.O=C(O)CN1CCC(CNc2ncc3cc(-c4ccccc4Cl)c(=O)[nH]c3n2)CC1 [Cpd 3]
211.8 to 212.8	6270	CN(C)C(=O)CN1CCC(CNc2ncc3cc(-c4ccccc4Cl)c(=O)[nH]c3n2)CC1.Cl [Cpd 4]
	31	C[C@H](Nc1ncc2cc(-c3ccccc3Cl)c(=O)n(C)c2n1)C(C)(C)O [Cpd 8]
171.2 to 174	92	Cn1c(=O)c(-c2ccccc2Cl)cc2cnc(N[C@H](CO)C(C)(C)C)nc21 [Cpd 18]
178 to 181.5		C[C@H](Nc1ncc2cc(-c3ccccc3Cl)c(=O)n(C)c2n1)C(C)(C)O (as salt: HCl) [Cpd 8]
205.3 to 210.9	42	Cl.Cn1c(=O)c(-c2ccccc2Cl)cc2cnc(NC3CCC3)nc21 [Cpd 10]
206.8 to 207.5		C[C@@H](Nc1ncc2cc(-c3ccccc3Cl)c(=O)n(-c3ccc(F)cc3)c2n1)C(C)(C)O [Cpd 6]
	48	CC(C)(CO)Nc1ncc2cc(-c3ccccc3Cl)c(=O)n(N)c2n1 [Cpd 13]
	0.3	C[C@H](Nc1ncc2cc(-c3ccccc3Cl)c(=O)n(-c3ccc(F)cc3)c2n1)C(C)(C)O [Cpd 7]
147 to 154	24	Nn1c(=O)c(-c2ccccc2Cl)cc2cnc(NC3CCCC3)nc21 [Cpd 11]
	124	C[C@H](Nc1ncc2cc(-c3ccccc3Cl)c(=O)n(C3CC3)c2n1)C(C)(C)O [Cpd 12]

Reference: patent publication US6518276B2, “7-oxo-pyridopyrimidines (II)” (Syntex (U.S.A.) LLC, priority 2000, dated 2003)
